ChEMBL document CHEMBL1828549, “Novel C-4'' modified azithromycin analogs with remarkably enhanced activity against erythromycin-resistant Streptococcus pneumoniae: the synthesis and antimicrobial evaluation” (2011)
In brackets after ≈: the same amount, converted by molar mass.

Tests used:
Format in all cases: functional
Staphylococcus aureus [1] = assay: Antibacterial activity against […] Staphylococcus aureus ATCC 29213 by the broth microdilution method
Streptococcus pneumoniae [2] = assay: Antibacterial activity against erythromycin-resistant Streptococcus pneumoniae A22072 expressing mef gene by the broth microdilution method
Streptococcus pneumoniae [3] = assay: Antibacterial activity against erythromycin-resistant Streptococcus pneumoniae AB11 expressing erm and mef gene by the broth microdilution method
Staphylococcus aureus [4] = assay: Antibacterial activity against penicillin-resistant Staphylococcus aureus by the broth microdilution method
Staphylococcus aureus [5] = assay: Antibacterial activity against erythromycin-susceptible Staphylococcus aureus ATCC 25923 by the broth microdilution method
Streptococcus pneumoniae [6] = assay: Antibacterial activity against erythromycin-susceptible Streptococcus pneumoniae ATCC 49619 by the broth microdilution method
Streptococcus pneumoniae [7] = assay: Antibacterial activity against erythromycin-resistant Streptococcus pneumoniae B1 expressing erm gene by the broth microdilution method

Structure (SMILES)	MIC (Staphylococcus aureus [1])	MIC (Streptococcus pneumoniae [2])	MIC (Streptococcus pneumoniae [3])	MIC (Staphylococcus aureus [4])	MIC (Staphylococcus aureus [5])	MIC (Streptococcus pneumoniae [6])	MIC (Streptococcus pneumoniae [7])
CC[C@H]1OC(=O)[C@H](C)[C@@H](O[C@H]2C[C@@](C)(OC)[C@@H](OC(=O)NCCNC(=O)c3ccc([N+](=O)[O-])cc3)[C@H](C)O2)[C@H](C)[C@@H](O[C@@H]2O[C@H](C)C[C@H](N(C)C)[C@H]2O)[C@](C)(O)C[C@@H](C)CN(C)[C@H](C)[C@H]2OC(=O)O[C@@]21C	16 µg/mL (≈ 15.8 µM)	0.5 µg/mL (≈ 0.495 µM)	64 µg/mL (≈ 63.4 µM)	1 µg/mL (≈ 0.99 µM)	4 µg/mL (≈ 3.96 µM)	0.5 µg/mL (≈ 0.495 µM)	4 µg/mL (≈ 3.96 µM)
CC[C@H]1OC(=O)[C@H](C)[C@@H](O[C@H]2C[C@@](C)(OC)[C@@H](OC(=O)NNC(=O)c3ccc(Cl)cc3)[C@H](C)O2)[C@H](C)[C@@H](O[C@@H]2O[C@H](C)C[C@H](N(C)C)[C@H]2O)[C@](C)(O)C[C@@H](C)CN(C)[C@H](C)[C@H]2OC(=O)O[C@@]21C	4 µg/mL (≈ 4.12 µM)	0.25 µg/mL (≈ 0.257 µM)	64 µg/mL (≈ 65.9 µM)	16 µg/mL (≈ 16.5 µM)	2 µg/mL (≈ 2.06 µM)	1 µg/mL (≈ 1.03 µM)	32 µg/mL (≈ 32.9 µM)
CC[C@H]1OC(=O)[C@H](C)[C@@H](O[C@H]2C[C@@](C)(OC)[C@@H](OC(=O)NNC(=O)c3ccc([N+](=O)[O-])cc3)[C@H](C)O2)[C@H](C)[C@@H](O[C@@H]2O[C@H](C)C[C@H](N(C)C)[C@H]2O)[C@](C)(O)C[C@@H](C)CN(C)[C@H](C)[C@H]2OC(=O)O[C@@]21C	4 µg/mL (≈ 4.07 µM)	1 µg/mL (≈ 1.02 µM)	32 µg/mL (≈ 32.6 µM)	4 µg/mL (≈ 4.07 µM)	4 µg/mL (≈ 4.07 µM)	0.25 µg/mL (≈ 0.255 µM)	16 µg/mL (≈ 16.3 µM)
CC[C@H]1OC(=O)[C@H](C)[C@@H](O[C@H]2C[C@@](C)(OC)[C@@H](OC(=O)NNC(=O)c3ccc(OC)cc3)[C@H](C)O2)[C@H](C)[C@@H](O[C@@H]2O[C@H](C)C[C@H](N(C)C)[C@H]2O)[C@](C)(O)C[C@@H](C)CN(C)[C@H](C)[C@H]2OC(=O)O[C@@]21C	32 µg/mL (≈ 33.1 µM)	0.25 µg/mL (≈ 0.258 µM)	64 µg/mL (≈ 66.2 µM)	8 µg/mL (≈ 8.27 µM)	2 µg/mL (≈ 2.07 µM)	4 µg/mL (≈ 4.14 µM)	16 µg/mL (≈ 16.5 µM)
CC[C@H]1OC(=O)[C@H](C)[C@@H](O[C@H]2C[C@@](C)(OC)[C@@H](OC(=O)NCCCCNC(=O)c3ccc(C)cc3)[C@H](C)O2)[C@H](C)[C@@H](O[C@@H]2O[C@H](C)C[C@H](N(C)C)[C@H]2O)[C@](C)(O)C[C@@H](C)CN(C)[C@H](C)[C@H]2OC(=O)O[C@@]21C	32 µg/mL (≈ 31.8 µM)	1 µg/mL (≈ 0.993 µM)	16 µg/mL (≈ 15.9 µM)	64 µg/mL (≈ 63.5 µM)	4 µg/mL (≈ 3.97 µM)	0.5 µg/mL (≈ 0.496 µM)	8 µg/mL (≈ 7.94 µM)
CC[C@H]1OC(=O)[C@H](C)[C@@H](O[C@H]2C[C@@](C)(OC)[C@@H](OC(=O)NCCNC(=O)c3ccc(Cl)cc3Cl)[C@H](C)O2)[C@H](C)[C@@H](O[C@@H]2O[C@H](C)C[C@H](N(C)C)[C@H]2O)[C@](C)(O)C[C@@H](C)CN(C)[C@H](C)[C@H]2OC(=O)O[C@@]21C	8 µg/mL (≈ 7.74 µM)	2 µg/mL (≈ 1.93 µM)	64 µg/mL (≈ 61.9 µM)	4 µg/mL (≈ 3.87 µM)	4 µg/mL (≈ 3.87 µM)	0.5 µg/mL (≈ 0.484 µM)	16 µg/mL (≈ 15.5 µM)
CC[C@H]1OC(=O)[C@H](C)[C@@H](O[C@H]2C[C@@](C)(OC)[C@@H](OC(=O)NCCCCNC(=O)c3ccc(Cl)cc3)[C@H](C)O2)[C@H](C)[C@@H](O[C@@H]2O[C@H](C)C[C@H](N(C)C)[C@H]2O)[C@](C)(O)C[C@@H](C)CN(C)[C@H](C)[C@H]2OC(=O)O[C@@]21C	8 µg/mL (≈ 7.78 µM)	1 µg/mL (≈ 0.973 µM)	16 µg/mL (≈ 15.6 µM)	64 µg/mL (≈ 62.3 µM)	4 µg/mL (≈ 3.89 µM)	0.5 µg/mL (≈ 0.487 µM)	8 µg/mL (≈ 7.78 µM)
CC[C@H]1OC(=O)[C@H](C)[C@@H](O[C@H]2C[C@@](C)(OC)[C@@H](OC(=O)NCCNC(=O)c3ccc(Cl)cc3)[C@H](C)O2)[C@H](C)[C@@H](O[C@@H]2O[C@H](C)C[C@H](N(C)C)[C@H]2O)[C@](C)(O)C[C@@H](C)CN(C)[C@H](C)[C@H]2OC(=O)O[C@@]21C	16 µg/mL (≈ 16 µM)	1 µg/mL (≈ 1 µM)	32 µg/mL (≈ 32 µM)	2 µg/mL (≈ 2 µM)	4 µg/mL (≈ 4 µM)	0.5 µg/mL (≈ 0.5 µM)	8 µg/mL (≈ 8 µM)
CC[C@H]1OC(=O)[C@H](C)[C@@H](O[C@H]2C[C@@](C)(OC)[C@@H](OC(=O)NCCNC(=O)c3ccc(Br)cc3)[C@H](C)O2)[C@H](C)[C@@H](O[C@@H]2O[C@H](C)C[C@H](N(C)C)[C@H]2O)[C@](C)(O)C[C@@H](C)CN(C)[C@H](C)[C@H]2OC(=O)O[C@@]21C	4 µg/mL (≈ 3.83 µM)	0.25 µg/mL (≈ 0.239 µM)	8 µg/mL (≈ 7.66 µM)	2 µg/mL (≈ 1.92 µM)	1 µg/mL (≈ 0.958 µM)	0.5 µg/mL (≈ 0.479 µM)	2 µg/mL (≈ 1.92 µM)
CC[C@H]1OC(=O)[C@H](C)[C@@H](O[C@H]2C[C@@](C)(OC)[C@@H](OC(=O)NNC(=O)c3cc([N+](=O)[O-])cc([N+](=O)[O-])c3)[C@H](C)O2)[C@H](C)[C@@H](O[C@@H]2O[C@H](C)C[C@H](N(C)C)[C@H]2O)[C@](C)(O)C[C@@H](C)CN(C)[C@H](C)[C@H]2OC(=O)O[C@@]21C	4 µg/mL (≈ 3.89 µM)	0.25 µg/mL (≈ 0.243 µM)	32 µg/mL (≈ 31.2 µM)	4 µg/mL (≈ 3.89 µM)	4 µg/mL (≈ 3.89 µM)	0.5 µg/mL (≈ 0.487 µM)	16 µg/mL (≈ 15.6 µM)
